The subject of the test is Swiss mice, Sarcoma 180 sc, mean tumor weight T/C. The experiment in a line: NCI In Vivo Anticancer Drug Screen. Data for tumor model Sarcoma 180 (subcutaneous) in Swiss mice. To be noted: endpoint: mean tumor weight, higher = larger tumour. The method, boiled down:
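T/C ratio: treated over vehicle-treated controls, measuring survival or tumor size in transplanted-tumor mice.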

Where [1] appears, read: dose: 6.25 mg/kg/injection, schedule: Q#A X014 (ip), vehicle: carboxymethylcellulose (CMC).
Where [2] appears, read: dose: 25.0 mg/kg/injection, schedule: Q#A X014 (ip), vehicle: carboxymethylcellulose (CMC).
Where [3] appears, read: dose: 60.0 mg/kg/injection, schedule: Q01DX007 (ip), vehicle: water.
Where [4] appears, read: dose: 125.0 mg/kg/injection, schedule: Q01DX007 (ip), vehicle: saline.
Where [5] appears, read: dose: 250.0 mg/kg/injection, schedule: Q01DX007 (ip), vehicle: carboxymethylcellulose (CMC).
The mark [6] stands for this setting: dose: 1000.0 mg/kg/injection, schedule: Q01DX007 (ip), vehicle: carboxymethylcellulose (CMC).

“And” between values parts separate entries of the source, which are not always exact repeats. Identical values can stand only once.

Our source for the T/C values is PubChem BioAssay AID342 (DTP/NCI, 2004).

The term T/C denotes the result in the treated group divided by that in the control group, in per cent. With `NC1(C(=O)O)CCCC1`, the T/C runs as follows: (dose: 4.62 mg/kg/injection, schedule: Q#A X014 (ip), vehicle: carboxymethylcellulose (CMC)) 86 % of control; under setting [1], 72 % of control; (dose: 9.25 mg/kg/injection, schedule: Q#A X014 (ip), vehicle: carboxymethylcellulose (CMC)) 101 % of control; (dose: 12.5 mg/kg/injection, schedule: Q#A X014 (ip), vehicle: carboxymethylcellulose (CMC)) 101 % of control; (dose: 15.0 mg/kg/injection, schedule: Q01DX007 (ip), vehicle: water) 75 % of control; (dose: 18.5 mg/kg/injection, schedule: Q#A X014 (ip), vehicle: carboxymethylcellulose (CMC)) 77 % of control. Besides, the T/C was 75 % of control (dose: 25.0 mg/kg/injection, schedule: Q01DX007 (ip), vehicle: saline); 75 % of control under setting [2]; 78 % of control (dose: 30.0 mg/kg/injection, schedule: Q01DX007 (ip), vehicle: water); 56 % of control (dose: 33.0 mg/kg/injection, schedule: Q#A X014 (ip), vehicle: saline); 50 % of control (dose: 37.0 mg/kg/injection, schedule: Q#A X014 (ip), vehicle: carboxymethylcellulose (CMC)); 64 % of control (dose: 50.0 mg/kg/injection, schedule: Q01DX007 (ip), vehicle: saline). Also, the T/C is, setting by setting: (dose: 50.0 mg/kg/injection, schedule: Q#A X014 (ip), vehicle: carboxymethylcellulose (CMC)) 35 % of control; (dose: 50.0 mg/kg/injection, schedule: Q#A X014 (ip), vehicle: saline) 44 % of control; under setting [3], 35 % of control; (dose: 62.0 mg/kg/injection, schedule: Q01DX007 (ip), vehicle: saline) 61 % of control; (dose: 75.0 mg/kg/injection, schedule: Q#A X014 (ip), vehicle: saline) 23 % of control; (dose: 100.0 mg/kg/injection, schedule: Q01DX007 (ip), vehicle: saline) 47 % of control. For the same compound, the T/C was 22 % of control (dose: 120.0 mg/kg/injection, schedule: Q01DX007 (ip), vehicle: water); 30 % of control under setting [4]; 22 % of control (dose: 200.0 mg/kg/injection, schedule: Q01DX007 (ip), vehicle: saline).
On to `Clc1ccccc1/C=C/C=C1c2ccccc2-c2ccccc21`, for which the T/C runs as follows: (dose: 222.0 mg/kg/injection, schedule: Q01DX007 (ip), vehicle: other) 72 % of control; (dose: 222.0 mg/kg/injection, schedule: Q01DX007 (ip), vehicle: saline) 83 % of control; (dose: 333.0 mg/kg/injection, schedule: Q01DX007 (ip), vehicle: other) 78 % of control; (dose: 333.0 mg/kg/injection, schedule: Q01DX007 (ip), vehicle: saline) 95 % of control; (dose: 492.0 mg/kg/injection, schedule: Q01DX007 (ip), vehicle: saline) 56 % of control; (dose: 500.0 mg/kg/injection, schedule: Q01DX007 (ip), vehicle: other) 50 % of control. Further, the T/C (dose: 500.0 mg/kg/injection, schedule: Q01DX007 (ip), vehicle: saline) was 79 % of control; the T/C (dose: 750.0 mg/kg/injection, schedule: Q01DX007 (ip), vehicle: other) is 49 % of control; the T/C (dose: 1119.0 mg/kg/injection, schedule: Q01DX007 (ip), vehicle: saline) is 58 % of control; the T/C (dose: 1679.0 mg/kg/injection, schedule: Q01DX007 (ip), vehicle: saline) was 54 % of control.
Take `O=CN(O)CC(=O)O`: the T/C by setting is: (dose: 62.5 mg/kg/injection, schedule: Q01DX007 (ip), vehicle: carboxymethylcellulose (CMC)) 105 % of control; under setting [5], 83 % of control; (dose: 500.0 mg/kg/injection, schedule: Q01DX007 (ip), vehicle: carboxymethylcellulose (CMC)) 84 % of control; (dose: 750.0 mg/kg/injection, schedule: Q01DX007 (ip), vehicle: carboxymethylcellulose (CMC)) 62 % of control; under setting [6], 61 % of control.
Take `CCCS/C(N)=N/N=C/c1ccc([N+](=O)[O-])o1`: the T/C reads like this: (dose: 13.5 mg/kg/injection, schedule: Q#A X014 (ip), vehicle: water) 81 % of control; (dose: 20.0 mg/kg/injection, schedule: Q#A X014 (ip), vehicle: water) 53 % of control; (dose: 27.0 mg/kg/injection, schedule: Q01DX007 (ip), vehicle: other) 67 % of control; (dose: 27.0 mg/kg/injection, schedule: Q01DX007 (ip), vehicle: water) 61 % of control; (dose: 30.0 mg/kg/injection, schedule: Q#A X014 (ip), vehicle: water) 34 % of control; (dose: 40.0 mg/kg/injection, schedule: Q01DX007 (ip), vehicle: water) 45 % of control. Moreover, the T/C under setting [3] was 59 % of control.
Consider `Nc1nc(N)c2[nH]cnc2n1`, for which the T/C was 106 % of control under setting [1]; 103 % of control (dose: 11.25 mg/kg/injection, schedule: Q#A X014 (ip), vehicle: carboxymethylcellulose (CMC)); 83 % of control (dose: 22.5 mg/kg/injection, schedule: Q#A X014 (ip), vehicle: carboxymethylcellulose (CMC)); 121 % of control under setting [2]; 68 % of control (dose: 45.0 mg/kg/injection, schedule: Q#A X014 (ip), vehicle: carboxymethylcellulose (CMC)); 48 % of control (dose: 90.0 mg/kg/injection, schedule: Q#A X014 (ip), vehicle: carboxymethylcellulose (CMC)).
For `COc1cc(C[C@H]2c3cc(OC)c(OC)cc3CCN2C)c(Oc2cc3c(cc2OC)-c2c(OC)c(OC)cc4c2[C@H](C3)N(C)CC4)cc1OC`, the T/C is 96 % of control (dose: 7.8 mg/kg/injection, schedule: Q01DX007 (ip), vehicle: saline); 77 % of control (dose: 15.6 mg/kg/injection, schedule: Q01DX007 (ip), vehicle: saline); 78 % of control (dose: 31.3 mg/kg/injection, schedule: Q01DX007 (ip), vehicle: saline); 57 % of control and 68 % of control (dose: 62.5 mg/kg/injection, schedule: Q01DX007 (ip), vehicle: saline); 63 % of control under setting [4].
`CC(C)([NH-])CO.CC(C)([NH-])CO.[Cl][Cd][Cl]`: the T/C is 50 % of control (dose: 1.0 mg/kg/injection, schedule: Q#A X014 (ip), vehicle: methylcellulose (MC)); 91 % of control (dose: 1.0 mg/kg/injection, schedule: Q#A X014 (ip), vehicle: other); 113 % of control (dose: 1.5 mg/kg/injection, schedule: Q#A X014 (ip), vehicle: methylcellulose (MC)); 104 % of control (dose: 1.5 mg/kg/injection, schedule: Q#A X014 (ip), vehicle: other); 70 % of control (dose: 1.75 mg/kg/injection, schedule: Q#A X014 (ip), vehicle: methylcellulose (MC)); 85 % of control (dose: 2.5 mg/kg/injection, schedule: Q#A X014 (ip), vehicle: methylcellulose (MC)). For the same compound, the T/C by setting is: (dose: 2.5 mg/kg/injection, schedule: Q#A X014 (ip), vehicle: other) 85 % of control; (dose: 2.65 mg/kg/injection, schedule: Q#A X014 (ip), vehicle: methylcellulose (MC)) 73 % of control; (dose: 3.75 mg/kg/injection, schedule: Q#A X014 (ip), vehicle: methylcellulose (MC)) 73 % of control; (dose: 3.75 mg/kg/injection, schedule: Q#A X014 (ip), vehicle: other) 102 % of control; (dose: 4.0 mg/kg/injection, schedule: Q#A X014 (ip), vehicle: methylcellulose (MC)) 49 % of control; (dose: 6.0 mg/kg/injection, schedule: Q#A X014 (ip), vehicle: methylcellulose (MC)) 36 % of control.
In the case of `NC(Cc1cccs1)C(=O)O` (stereo not given), the T/C (dose: 175.0 mg/kg/injection, schedule: Q01DX007 (ip), vehicle: carboxymethylcellulose (CMC)) is 95 % of control; the T/C under setting [5] was 81 % of control; the T/C under setting [6] is 108 % of control.
With `CC12CCC3C(CCC4CC=CCC43C)C1CCC2=O` (stereo not given), the T/C (dose: 31.0 mg/kg/injection, schedule: Q01DX007 (sc), vehicle: steriod suspending solution) is 102 % of control; the T/C (dose: 62.5 mg/kg/injection, schedule: Q01DX007 (sc), vehicle: steriod suspending solution) is 105 % of control; the T/C (dose: 125.0 mg/kg/injection, schedule: Q01DX007 (sc), vehicle: steriod suspending solution) was 107 % of control and 123 % of control; the T/C (dose: 250.0 mg/kg/injection, schedule: Q01DX007 (sc), vehicle: steriod suspending solution) was 95 % of control and 96 % of control.
Regarding `O=C(O)CC[S-].[Ag+]`, the T/C (dose: 187.5 mg/kg/injection, schedule: Q#A X014 (ip), vehicle: methylcellulose (MC)) is 59 % of control and 68 % of control; the T/C (dose: 281.0 mg/kg/injection, schedule: Q#A X014 (ip), vehicle: methylcellulose (MC)) is 69 % of control.
